Experimental data reported in PubChem BioAssay AID328 (DTP/NCI, 2004).
Several values for one entry are separate records, joined by “and”; a condition that tells them apart may be missing. Equal entries are not always repeated. Inconclusive results and toxic doses are left out.

Tested on: BDF1 mice, P388 leukemia ip, median survival T/C
Test: NCI In Vivo Anticancer Drug Screen. Data for tumor model P388 Leukemia (intraperitoneal) in B6D2F1 (BDF1) mice
Details: endpoint: median survival time, higher = longer survival
Outline: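 Antitumour effect was judged in vivo: survival in drug-treated mice, normalised to that of vehicle-dosed controls, gives the reported T/C.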

[1] = dose: 25.0 mg/kg/injection, schedule: Q01DX009 (ip), vehicle: saline with Tween-80
[2] = dose: 100.0 mg/kg/injection, schedule: Q01DX009 (ip), vehicle: saline with Tween-80
[3] = dose: 200.0 mg/kg/injection, schedule: Q01DX009 (ip), vehicle: saline with Tween-80
[4] = dose: 100.0 mg/kg/injection, schedule: Q01DX001 (ip), vehicle: saline with Tween-80
[5] = dose: 12.5 mg/kg/injection, schedule: Q04DX003 (ip), vehicle: saline with Tween-80
[6] = dose: 25.0 mg/kg/injection, schedule: Q04DX003 (ip), vehicle: saline with Tween-80
[7] = dose: 50.0 mg/kg/injection, schedule: Q04DX003 (ip), vehicle: saline with Tween-80
[8] = dose: 12.5 mg/kg/injection, schedule: Q01DX009 (ip), vehicle: saline
[9] = dose: 25.0 mg/kg/injection, schedule: Q01DX009 (ip), vehicle: saline
[10] = dose: 50.0 mg/kg/injection, schedule: Q01DX009 (ip), vehicle: saline with Tween-80
[11] = dose: 100.0 mg/kg/injection, schedule: Q04DX003 (ip), vehicle: saline with Tween-80
[12] = dose: 200.0 mg/kg/injection, schedule: Q04DX003 (ip), vehicle: saline with Tween-80
[13] = dose: 400.0 mg/kg/injection, schedule: Q04DX003 (ip), vehicle: saline with Tween-80

## Cc1c2cnccc2c(C)c2c1c1ccccc1n2CC1CO1 (stereo not drawn)
dose: 9.37 mg/kg/injection, schedule: Q01DX009 (ip), vehicle: Klucel (hydroxypropylcellulose) (HPC)
  T/C: 150 % of control
dose: 11.0 mg/kg/injection, schedule: Q01DX009 (ip), vehicle: saline with Tween-80
  T/C: 168 % of control
dose: 16.5 mg/kg/injection, schedule: Q01DX009 (ip), vehicle: saline with Tween-80
  T/C: 176 % of control
[1]
  T/C: 106 % of control
dose: 37.5 mg/kg/injection, schedule: Q01DX009 (ip), vehicle: saline with Tween-80
  T/C: 95 % of control

## O=C1CSC(=S)N1c1ccco1
dose: 50.0 mg/kg/injection, schedule: Q01DX001 (ip), vehicle: Klucel (hydroxypropylcellulose) (HPC)
  T/C: 100 % of control
dose: 100.0 mg/kg/injection, schedule: Q01DX001 (ip), vehicle: Klucel (hydroxypropylcellulose) (HPC)
  T/C: 95 % of control
dose: 100.0 mg/kg/injection, schedule: Q04DX003 (ip), vehicle: saline
  T/C: 104 % of control
dose: 200.0 mg/kg/injection, schedule: Q01DX001 (ip), vehicle: Klucel (hydroxypropylcellulose) (HPC)
  T/C: 95 % of control
dose: 200.0 mg/kg/injection, schedule: Q04DX003 (ip), vehicle: saline
  T/C: 100 % of control
dose: 400.0 mg/kg/injection, schedule: Q04DX003 (ip), vehicle: saline
  T/C: 100 % of control

## CN(C)c1ccc2cc(S(=O)(=O)O)cc(O)c2c1
[2]
  T/C: 95 % of control
[3]
  T/C: 91 % of control
dose: 400.0 mg/kg/injection, schedule: Q01DX009 (ip), vehicle: saline with Tween-80
  T/C: 91 % of control

## O=C(O)C1C2C=CC(C2)C1C(F)(F)C(F)(F)C(F)(F)F (stereo not drawn)
[4]
  T/C: 100 % of control
dose: 200.0 mg/kg/injection, schedule: Q01DX001 (ip), vehicle: saline with Tween-80
  T/C: 104 % of control
dose: 400.0 mg/kg/injection, schedule: Q01DX001 (ip), vehicle: saline with Tween-80
  T/C: 118 % of control

## O=C(OCC(OC(=O)c1ccccc1)C(OC(=O)c1ccccc1)C(OC(=O)c1ccccc1)C(COC(=O)c1ccccc1)OC(=O)c1ccccc1)c1ccccc1 (stereo not drawn)
dose: 6.25 mg/kg/injection, schedule: Q04DX003 (ip), vehicle: saline with Tween-80
  T/C: 97 % of control
[5]
  T/C: 92 % of control
[6]
  T/C: 97 % of control
[7]
  T/C: 87 % of control

## COc1ccc2c(c1OC)C(=O)OC2(O)C1=NCCc2cc3c(cc21)OCO3 (stereo not drawn)
dose: 50.0 mg/kg/injection, schedule: Q01DX005 (ip), vehicle: saline with Tween-80
  T/C: 111 % of control
dose: 100.0 mg/kg/injection, schedule: Q01DX005 (ip), vehicle: saline with Tween-80
  T/C: 98 % of control
dose: 200.0 mg/kg/injection, schedule: Q01DX005 (ip), vehicle: saline with Tween-80
  T/C: 109 % of control

## Nc1nnc[se]1
dose: 12.5 mg/kg/injection, schedule: Q01DX009 (ip), vehicle: saline with Tween-80
  T/C: 116 % of control
[8]
  T/C: 96 % of control
[1]
  T/C: 151 % of control
[9]
  T/C: 122 % of control
[10]
  T/C: 164 % of control and 178 % of control

## CC(C)NCc1ccccc1Sc1ccccc1CNC(C)C
[4]
  T/C: 103 % of control
dose: 100.0 mg/kg/injection, schedule: Q04DX002 (ip), vehicle: saline
  T/C: 103 % of control

## CC12CCC3C(CCC4CC5(CCC43C)CO5)C1CCC2=O (stereo not drawn)
[11]
  T/C: 103 % of control
[12]
  T/C: 103 % of control
[13]
  T/C: 98 % of control

## CN=C(NN(C)C)c1ccc(NC(=O)c2ccc(C(=O)Nc3ccc(C(=NC)NN(C)C)cc3)cc2)cc1
dose: 4.0 mg/kg/injection, schedule: Q01DX009 (ip), vehicle: saline with Tween-80
  T/C: 100 % of control
dose: 9.0 mg/kg/injection, schedule: Q01DX009 (ip), vehicle: saline with Tween-80
  T/C: 150 % of control

## CCOC(=O)S(=O)(=O)c1ccc(C)cc1
dose: 6.25 mg/kg/injection, schedule: Q01DX009 (ip), vehicle: saline
  T/C: 90 % of control
[8]
  T/C: 90 % of control
[9]
  T/C: 115 % of control

## CC(=O)NC(CCC(=O)C=[N+]=N)C(=O)O (stereo not drawn)
dose: 0.05 mg/kg/injection, schedule: Q01DX010 (ip), vehicle: other
  T/C: 115 % of control
dose: 0.1 mg/kg/injection, schedule: Q01DX010 (ip), vehicle: other
  T/C: 110 % of control
dose: 0.2 mg/kg/injection, schedule: Q01DX010 (ip), vehicle: other
  T/C: 120 % of control
dose: 0.6 mg/kg/injection, schedule: Q01DX010 (ip), vehicle: other
  T/C: 154 % of control
dose: 0.8 mg/kg/injection, schedule: Q01DX010 (ip), vehicle: other
  T/C: 168 % of control
dose: 1.0 mg/kg/injection, schedule: Q01DX010 (ip), vehicle: other
  T/C: 100 % of control

## O=C1C(c2ccccc2)=C(c2ccccc2)C(c2ccccc2)=C1c1ccccc1
dose: 0.78 mg/kg/injection, schedule: Q04DX003 (ip), vehicle: water
  T/C: 88 % of control
dose: 1.56 mg/kg/injection, schedule: Q01DX009 (ip), vehicle: water
  T/C: 103 % of control
dose: 1.56 mg/kg/injection, schedule: Q04DX003 (ip), vehicle: water
  T/C: 95 % of control
dose: 3.12 mg/kg/injection, schedule: Q01DX009 (ip), vehicle: water
  T/C: 94 % of control
dose: 3.12 mg/kg/injection, schedule: Q04DX003 (ip), vehicle: water
  T/C: 88 % of control
dose: 6.25 mg/kg/injection, schedule: Q01DX009 (ip), vehicle: water
  T/C: 97 % of control
dose: 6.25 mg/kg/injection, schedule: Q04DX003 (ip), vehicle: water
  T/C: 106 % of control
dose: 12.5 mg/kg/injection, schedule: Q01DX009 (ip), vehicle: water
  T/C: 94 % of control
dose: 12.5 mg/kg/injection, schedule: Q04DX003 (ip), vehicle: water
  T/C: 100 % of control
dose: 25.0 mg/kg/injection, schedule: Q01DX009 (ip), vehicle: water
  T/C: 97 % of control
dose: 50.0 mg/kg/injection, schedule: Q01DX009 (ip), vehicle: water
  T/C: 97 % of control
dose: 100.0 mg/kg/injection, schedule: Q01DX009 (ip), vehicle: water
  T/C: 101 % of control
dose: 200.0 mg/kg/injection, schedule: Q01DX009 (ip), vehicle: water
  T/C: 91 % of control
dose: 400.0 mg/kg/injection, schedule: Q01DX009 (ip), vehicle: water
  T/C: 87 % of control

## Cc1ccc2c(Br)cc(Br)c(O)c2n1
dose: 10.0 mg/kg/injection, schedule: Q01DX009 (ip), vehicle: Klucel (hydroxypropylcellulose) (HPC)
  T/C: 115 % of control
dose: 20.0 mg/kg/injection, schedule: Q01DX009 (ip), vehicle: Klucel (hydroxypropylcellulose) (HPC)
  T/C: 115 % of control
dose: 40.0 mg/kg/injection, schedule: Q01DX009 (ip), vehicle: Klucel (hydroxypropylcellulose) (HPC)
  T/C: 115 % of control
dose: 100.0 mg/kg/injection, schedule: Q01DX009 (ip), vehicle: Klucel (hydroxypropylcellulose) (HPC)
  T/C: 100 % of control

## COc1cc(C(=O)N(CCCl)N=O)cc(OC)c1OC
[6]
  T/C: 100 % of control
[10]
  T/C: 100 % of control
[7]
  T/C: 100 % of control
[2]
  T/C: 100 % of control
[11]
  T/C: 100 % of control and 109 % of control
[3]
  T/C: 100 % of control
[12]
  T/C: 100 % of control
[13]
  T/C: 109 % of control

## C=CC(OC(C)=O)OC(C)=O
dose: 6.0 mg/kg/injection, schedule: Q01DX009 (ip), vehicle: saline with Tween-80
  T/C: 104 % of control
dose: 8.0 mg/kg/injection, schedule: Q01DX009 (ip), vehicle: saline with Tween-80
  T/C: 115 % of control
dose: 12.0 mg/kg/injection, schedule: Q01DX009 (ip), vehicle: saline with Tween-80
  T/C: 111 % of control
[5]
  T/C: 108 % of control
dose: 18.0 mg/kg/injection, schedule: Q01DX009 (ip), vehicle: saline with Tween-80
  T/C: 100 % of control
[6]
  T/C: 117 % of control

## CCOC(=O)C1(C)CCCC1=O (stereo not drawn)
dose: 12.5 mg/kg/injection, schedule: Q04DX003 (ip), vehicle: saline
  T/C: 100 % of control
dose: 25.0 mg/kg/injection, schedule: Q04DX003 (ip), vehicle: saline
  T/C: 95 % of control
dose: 50.0 mg/kg/injection, schedule: Q04DX003 (ip), vehicle: saline
  T/C: 90 % of control

## CN1C(=O)C23CC4=CC=CC(O)C4N2C(=O)C1(CO)SS3 (stereo not drawn)
dose: 0.19 mg/kg/injection, schedule: Q01DX009 (ip), vehicle: saline with Tween-80
  T/C: 100 % of control
dose: 0.38 mg/kg/injection, schedule: Q01DX009 (ip), vehicle: saline with Tween-80
  T/C: 100 % of control
dose: 0.75 mg/kg/injection, schedule: Q01DX009 (ip), vehicle: saline with Tween-80
  T/C: 108 % of control and 109 % of control
